TGI and GI50 data for 27 molecules are collected here from PubChem BioAssay (NCI).

Structures are written as SMILES. Where “and” joins values, the source holds several entries; their conditions need not be identical. Equal entries are not always repeated.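 Following 48 hours of exposure in 96-well plates, responses at five concentrations were used to interpolate endpoints linearly. Abbreviation: GI50, concentration required for 50% inhibition of growth. TGI denotes the concentration required for complete inhibition of growth.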 Where a SMILES comes first, the peptide text is derived from it. The star is where a group is joined. Cbz = O=C(OCc1ccccc1)*

What all share (assay): growth of human tumour cells (NCI), 48 h
The subject of assay [1] is CAKI-1 renal.
The test system of assay [2] is NCI-H522 lung.
The subject of assay [3] is SNB-19 CNS.
Assay [4] deals with PC-3 prostate.
Assay [5] concerns NCI-H23 lung.
Assay [6] has as its system SK-MEL-2 melanoma.
In assay [7] the test system is DU-145 prostate.
The subject of assay [8] is SW-620 colon.
Assay [9] concerns NCI/ADR-RES ovarian.
In assay [10] the test system is OVCAR-4 ovarian.
For assay [11], the system named is HS 578T breast.
The subject of assay [12] is BT-549 breast.

As for `CC1(C)O[C@H]2OC(CO)C(N=[N+]=[N-])[C@H]2O1` (stereo partly specified), the TGI in [1], in assay [2], in assay [3], in [4], in [5] and in [6] was above 100 µM each time. Besides, the TGI in assay [7], in [8], in [9], in assay [10] and in [11] was above 100 µM in each case.

Consider `CN1CCCOC(c2ccc(Cl)cc2)O1` (stereo unspecified), for which the TGI in [1], in assay [2], in assay [3], in assay [4], in assay [5] and in assay [12] was above 100 µM each time. Further, the TGI in assay [6], in assay [7], in assay [8], in assay [9] and in assay [10] was above 100 µM each time.

Regarding `COc1cccc(-c2nc(-c3cnccn3)n(C/C=C/c3ccccc3)n2)c1`, the TGI in assay [2], in [3], in assay [4], in assay [5], in [12] and in [6] was above 10 µM throughout. Further, the TGI in [8], in [9], in [10] and in [11] was above 10 µM throughout.

Consider `CCOC(=O)CCC(NC(=O)c1ccc(NCc2ccc3nc(-c4ccccc4)c(Cl)nc3c2)cc1)C(=O)OCC` (stereo unspecified), for which the TGI in [1] was above 100 µM; in assay [2], 57.8 µM; in [3], above 100 µM; in assay [5], above 100 µM; in [6], 25.9 µM; in assay [8] it was above 100 µM. This molecule came in with a TGI in assay [10] of 90.6 µM.

As for `Cc1ccc(NC(=O)C(=O)C2C(=O)NC(=O)NC2=O)cc1C`, the TGI in assay [1], in assay [2], in [3], in assay [5], in [6] and in assay [8] was above 100 µM each time. This molecule also registered a TGI in assay [10] above 100 µM.

Regarding `c1ccc2c(c1)OCCOCCOc1ccccc1OCCO2`, the TGI is above 100 µM in [1]; above 100 µM in assay [2]; above 100 µM in [3]; above 100 µM in assay [5]; above 100 µM in [6]; 77.1 µM in assay [8]. Also, the TGI in assay [10] is above 100 µM.

In the case of `CC(=O)OCCOCNC(=S)N/N=C/c1ccc([N+](=O)[O-])s1`, the TGI in assay [2] is 24.5 µM; in assay [3], above 100 µM; in [5] it was 43.1 µM; in [6] it was above 100 µM; in assay [8] it was above 100 µM; in assay [10] it was above 100 µM.

In the case of `COCn1cnc2c(=O)nc(SC)n(-c3ccccc3)c21`, the TGI in assay [1], in [2], in assay [3], in assay [5], in assay [12] and in assay [6] was above 100 µM each time. The TGI in assay [7], in assay [8], in assay [9], in [10] and in [11] was above 100 µM each time.

Turning to `Cc1ccc2c(c1)CC1(Cc3cccc(C)c3C1=O)C2=O` (stereo unspecified), the TGI in [2], in assay [4], in [5], in assay [7], in assay [8] and in assay [9] was above 100 µM throughout. Also, the TGI in assay [10] and in assay [11] was above 100 µM in each case.

Regarding `CC(=O)Nc1c(C(=N)C#N)ncn1CCO`, the TGI in assay [1], in [2], in assay [3], in [4], in assay [5] and in [6] was above 100 µM each time. The TGI in assay [7], in assay [8], in [9], in assay [10] and in assay [11] was above 100 µM in each case.

Turning to `COc1ccc(/C=N/N=C(\N)NO)c(OC)c1C`, the TGI is 46.4 µM in assay [1]; 26.4 µM in assay [2]; above 100 µM in assay [3]; 60.6 µM in assay [5]; 70.6 µM in assay [6]; above 100 µM in assay [8]. In assay [10], this molecule displayed a TGI above 100 µM.

As to `CC1(C)OP(=O)(O)C=C1Sc1ccc([N+](=O)[O-])cc1[N+](=O)[O-]`, the TGI in [1], in assay [2], in [3], in assay [4], in [5] and in assay [6] was above 100 µM each time. Moreover, the TGI in assay [7], in [8], in assay [9], in [10] and in [11] was above 100 µM in each case.

On to `COc1ccc(/C(Cl)=C(\C#N)c2ccc(OC)c(OC)c2)cc1OC`, for which the TGI in assay [1], in [2], in assay [3], in [4], in [5] and in assay [12] was above 100 µM throughout. The TGI in [6], in assay [7], in assay [8] and in assay [10] was above 100 µM throughout.

For the molecule `CCOC(=O)CCC1(CCC(=O)OCC)CCCCCCCCC(CCC(=O)OCC)(CCC(=O)OCC)C(=O)C1=O`, the TGI in assay [1], in [2], in assay [3], in assay [4], in assay [5] and in assay [6] was above 100 µM each time. Also, the TGI in assay [7], in [8], in [9], in [10] and in assay [11] was above 100 µM in each case.

With `CC(=O)O[C@]12CCCCCC1C1(O)C(O)CCCCC12` (stereo partly specified), the TGI in assay [2], in [3], in [5], in assay [6], in [8] and in assay [10] was above 100 µM each time.

For the molecule `Nc1c(S(=O)(=O)c2ccccc2)c2nc3ccccc3nc2n2c1nc1ccccc12`, the TGI in assay [1] is above 100 µM; in assay [2] it was above 100 µM; in assay [3], above 93.2 µM; in assay [5], above 50 µM; in assay [6], above 100 µM; in assay [8] it was above 100 µM. The TGI in [10] is above 80.5 µM.

For the molecule `CN1CCN(/C(N)=C(\C#N)C(=O)Nc2ccc(Cl)cc2)CC1`, the TGI in assay [1], in assay [3], in [4], in [5], in assay [12] and in assay [6] was above 100 µM each time. The TGI in [7], in assay [8] and in [9] was above 100 µM each time.

`CCOC(=O)c1ccc(-c2ccc(Cl)cc2)[nH]1`: the TGI in [2], in assay [3], in assay [5], in [12], in assay [6] and in [7] was above 10 µM in each case. Moreover, the TGI in assay [9], in assay [10] and in assay [11] was above 10 µM throughout.

In the case of `O=c1[nH]nc(Cc2ccc(Cl)cc2)n1/N=C/c1cccs1`, the TGI in assay [1] was above 100 µM; in assay [2], 68.8 µM; in [3], 64 µM; in [4], above 100 µM; in assay [5], above 100 µM; in [12] it was 66.5 µM. Besides, the TGI in assay [6] is 93.6 µM; in [7] it was above 100 µM; in assay [8] it was above 100 µM; in assay [9] it was above 100 µM; in assay [10] it was above 100 µM.

For `C=C1CCCCCCCCC/C=C/1SCCCSC`, the TGI in assay [1], in [2], in assay [3], in [4], in assay [5] and in [6] was above 100 µM each time. The TGI in assay [7], in assay [8], in assay [9], in assay [10] and in assay [11] was above 100 µM each time.

With `S=C1NCCN1C(=S)Nc1ccccc1`, the TGI in assay [1], in assay [2], in assay [5], in [12], in [6] and in [7] was above 100 µM throughout. Also, the TGI in assay [8], in assay [9], in assay [10] and in assay [11] was above 100 µM in each case.

Turning to `CC(=O)c1ccc2c(c1)C(=O)c1sc(C(C)=O)cc1C2=O`, the TGI in assay [1] is 4.48 µM; in assay [2] it was 1.7 µM and 0.585 µM; in [3], 1.66 µM and 2.61 µM; in assay [4], 7.12 µM and 11.3 µM; in [5], 2.6 µM and 5.35 µM; in assay [6], 4.23 µM and 2.98 µM. Besides, the TGI in [7] was 2.12 µM and 3 µM; in assay [8] it was 50 µM; in [9], 2.56 µM and 1.93 µM; in assay [11] it was 50 µM and 7.03 µM. The GI50 was 0.222 µM in [2]; 1.34 µM in assay [3]; 2.55 µM in assay [4]; 0.607 µM in [5]; 1.54 µM in assay [7]; 0.326 µM in [9]. In addition, the GI50 in [11] was 2.21 µM.

As to `COC(=O)N[C@H](C(=O)NC(OCc1ccccc1)C1COC(C)(C)O1)C(C)O[Si](C)(C)C(C)(C)C` (stereo partly specified), the TGI in assay [1], in [3], in assay [4], in assay [5], in assay [7] and in [8] was above 100 µM each time. Further, the TGI in assay [9], in assay [10] and in assay [11] was above 100 µM throughout.

As to `OC(C/C=N/N=C/CC(O)(C(F)(F)Cl)C(F)(F)Cl)(C(F)(F)Cl)C(F)(F)Cl`, the TGI in assay [1], in assay [2], in assay [3], in [4], in assay [5] and in [6] was above 10 µM each time. For the same molecule, the TGI in assay [7], in assay [8], in assay [9], in assay [10] and in assay [11] was above 10 µM in each case.

Take `C=CC1(CC[C@]2(c3ccc(OC)c(OC)c3)C=[N+]([O-])O[C@H](O[C@@H]3CCCC[C@H]3C(C)(C)c3ccccc3)C2)OCC(C)(C)CO1`: the TGI is above 28 µM in assay [1]; 17.1 µM in [2]; above 54.1 µM in assay [3]; 28.3 µM in [4]; above 100 µM in [5]; 98.6 µM in assay [12]. The TGI was 28.7 µM in assay [6]; 49.9 µM in assay [7]; above 46.5 µM in assay [8]; 31 µM in assay [9]; 28.9 µM in assay [10].

For the molecule `COc1ccc(N2C(=O)C(=O)N(c3ccc(N=Nc4ccccc4)cc3)C2=S)cc1`, the TGI in assay [1] is 47.2 µM; in assay [2], 20.2 µM; in assay [3], 53.4 µM; in assay [4] it was 33.8 µM; in [5], 34.9 µM; in assay [6] it was 35.1 µM. The TGI is 34.3 µM in [7]; 32.6 µM in assay [8]; 35.9 µM in [9]; 37.7 µM in assay [10]; above 100 µM in assay [11].

With `CCOC(=O)CCC(NC(=O)OCc1ccccc1)C(=O)NC(CCC(=O)OCC)C(=O)OCC` (stereo unspecified) (Cbz-Glu(OEt)-Glu(OEt)-OEt; configuration not given here), the TGI in assay [1], in assay [2], in assay [3], in assay [4], in assay [5] and in assay [6] was above 100 µM in each case. Further, the TGI in assay [7], in assay [8], in assay [9], in [10] and in [11] was above 100 µM each time.
